According to patent publication US7384656B2, “Anti-allergy composition and related method” (Access Business Group International LLC, priority 2004, dated 2008):

Key:
Type in all cases: cell-based
[1] = test system: histamine release, RBL-2H3 cells; experiment: Histamine release from IgE-sensitized, DNP-BSA stimulated RBL-2H3 cells (ELISA); settings: for Percent Control of Histamine Release (Table VII): 10 ng/ml, in combinations each part at 10 ng/ml; for Percent Control, Histamine Release (Table VIII): 1 μg/ml
Method: The methodology used to obtain the results of FIG. 9 will now be described. First, RBL-2H3 cells, available from ATCC (American Type Culture Collection) of Manassas, Va., were plated in 24 well plates at 5×10^4/well. Following adherence, the cells were exposed to the ingredients or combination of ingredients noted in FIG. 9, also referred to as samples. The samples were used at the concentrations noted in Table VI. Stock solutions of all samples were prepared in a solution of DMSO, ethanol, and water present in a ratio of 5:3:2 at 100 mg/ml. Each sample was then diluted in media to the final concentration. The cells were then incubated overnight with the samples. The following day a mouse anti-dinitrophenyl (DNP) IgE antibody, available from Sigma of St. Louis, Mo., was added to the cells at a final concentration of 1 ng/ml. The cells were incubated for 1.5 hr at 37° C. to allow binding of the IgE molecule to the cellular IgE receptor via the constant region of the antibody. Following this incubation period, the cells were washed twice. A solution containing DNP conjugated to BSA (DNP-BSA), available from Calbiochem of San Diego, Calif., was added to the cells at 0.5 ng/ml. The cells were incubated an additional 1 hr at 37° C. The supernatants were assayed for the presence of histamine, PGD2 and/or LTC4 using ELISA kits commercially available from Cayman Chemical of Ann Arbor, Mich. according to the manufacturer's specifications. Next, the measured OD450 data from the ELISA was inputted into a calibration graph to determine the amount by which histamine was reduced relative to an untreated control sample. An example of a histamine calibration graph is illustrated in FIG. 10. Suffice it to say that calibration graphs for PGD2 and LTC4 are similar. The calibration graph in FIG. 10 was generated by measuring the OD450 of multiple, known concentrations of purified histamine. As shown in the graph, the X-axis indicates the concentrations of the histamine in nanomolar; and the Y-axis indicates the OD450 derived from each of the concentrations. The line 120 connects the data points, while line 130 is a trend line corresponding to the equation in this particular embodiment of: Y=−0.0025X^2+0.2915X+2.0775 Equation 2 With the histamine calibration graph, the amount of histamine for each sample was determined, and the subsequent data was input into Table VI and FIG. 9 for comparative analysis.

[2] = test system: IgE secretion by U266 human myeloma cells; experiment: IgE secretion by U266 human myeloma cells (IgE ELISA of supernatants); settings: for Percent Control, IgE Secretion (IgE) (Table VIII): 100 μg/ml (no concentration printed for Formula)
Method: The methodology used to obtain the results of FIG. 3 will now be described. First, U266 human myeloma cells, available from ATCC of Manassas, Va. were plated in 96 well plates at 4×10^4/well. The cells were exposed to the sample combinations of ingredients listed in Table I, each combination referred to as a “sample.” Stock solutions of all samples were prepared in a solution of DMSO, ethanol, and water present in a ratio of 5:3:2 at 100 mg/ml. Each sample was then diluted to 100 μg/ml in media. Duplicate plates of each sample were prepared so that viability could be determined multiple times for each sample, with the results of the multiple samples averaged following treatment of the cells. The plates were incubated an additional 48 hours. Thereafter, the amount of IgE in the supernatants was measured using a conventional quantitative IgE ELISA kit available from Bethyl Laboratories of Montgomery, Tex. Next, the measured OD450 data from the IgE ELISA was inputted into a calibration graph, illustrated in FIG. 4, to determine the concentration of IgE in ng/ml in each supernatant. This calibration graph was generated by measuring the OD450 of multiple, known concentrations (in nanograms per ml) of purified IgE. As shown in the graph, the X-axis indicates the concentrations of the IgE in ng/ml; and the Y-axis indicates the OD450 derived from each of the concentrations. The line 100 connects the data points, while line 110 is a trend line corresponding to the equation in this particular embodiment of: Y=0.2909X−0.2527 Equation 1 With the IgE calibration graph, the amount of IgE for each sample was determined, and the subsequent data was input into FIG. 3 for comparative analysis.

[3] = test system: PGD2 release, RBL-2H3 cells; experiment: PGD2 release from IgE-sensitized, DNP-BSA stimulated RBL-2H3 cells (ELISA); settings: 10 μg/ml
Method: The methodology used to obtain the results of FIG. 9 will now be described. First, RBL-2H3 cells, available from ATCC (American Type Culture Collection) of Manassas, Va., were plated in 24 well plates at 5×10^4/well. Following adherence, the cells were exposed to the ingredients or combination of ingredients noted in FIG. 9, also referred to as samples. The samples were used at the concentrations noted in Table VI. Stock solutions of all samples were prepared in a solution of DMSO, ethanol, and water present in a ratio of 5:3:2 at 100 mg/ml. Each sample was then diluted in media to the final concentration. The cells were then incubated overnight with the samples. The following day a mouse anti-dinitrophenyl (DNP) IgE antibody, available from Sigma of St. Louis, Mo., was added to the cells at a final concentration of 1 ng/ml. The cells were incubated for 1.5 hr at 37° C. to allow binding of the IgE molecule to the cellular IgE receptor via the constant region of the antibody. Following this incubation period, the cells were washed twice. A solution containing DNP conjugated to BSA (DNP-BSA), available from Calbiochem of San Diego, Calif., was added to the cells at 0.5 ng/ml. […] Next, the measured OD450 data from the ELISA was inputted into a calibration graph to determine the amount by which histamine was reduced relative to an untreated control sample. […]

[4] = listed as Luteolin from Perilla seed

O=c1cc(-c2ccc(O)c(O)c2)oc2cc(O)cc(O)c12 [Luteolin] was tested, and the “Percent Control of Histamine Release (Table VII)” value (from here on “Percent Control … (Table VII)”) [1] was 88.1%, the “Percent Control … (Table VII)” value ([1]; listed as luteolin) was “about 88%” and the “Percent Control … (Table VII)” value ([1]; listed as luteolin from Perilla leaf) was “about 88%”. The “Percent Control of Histamine Release (Table VI)” value ([1]; 100 ng/ml) was 10%, the “Percent Control, Histamine Release (Table VIII)” value [1] was “about 100%” and the “Percent Control, Histamine Release (Table VIII)” value [1, 4] was 99.9%. For the same compound, the “Percent Control, IgE Secretion (IgE) (Table VIII)” value [2] was “about 95%”, the “Percent Control, IgE Secretion (IgE) (Table VIII)” value [2, 4] was 95.5% and the “Percent Control IgE-Secretion (Table V)” value ([2]; 100 μg/ml, relative to untreated control cells) was 53%. The “Percent Control of PGD2 Release (Table VI)” value [3] was 68%.
